The supplement of paper PMC10307832

What was measured:
Experiment in all cases: relative viability (nuclei count vs DMSO), 5 days (fraction); higher = more cells survive
201T = test system: 201T
Method in brief: (§1)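 Five library-drug doses in √10 steps were combined with a fixed anchor-drug dose, or a single drug was given alone, by pin tool to lung cancer cell lines in 1536-well plates the day after seeding. Nuclei were stained and counted after 5 days. Relative viability is the nuclei count in treated wells over that in vehicle wells, taken as the median of duplicate plates.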

COR-L23 = test system: COR-L23
Method in brief: as §1

EPLC-272H = test system: EPLC-272H
Method in brief: as §1

H3255 = test system: H3255
Method in brief: as §1

HCC-15 = test system: HCC-15
Method in brief: as §1

LOU-NH91 = test system: LOU-NH91
Method in brief: as §1

NCI-H1563 = test system: NCI-H1563
Method in brief: as §1

NCI-H1650 = test system: NCI-H1650
Method in brief: as §1

NCI-H1734 = test system: NCI-H1734
Method in brief: as §1

NCI-H2023 = test system: NCI-H2023
Method in brief: as §1

NCI-H2347 = test system: NCI-H2347
Method in brief: as §1

NCI-H2405 = test system: NCI-H2405
Method in brief: as §1

NCI-H3122 = test system: NCI-H3122
Method in brief: as §1

NCI-H322M = test system: NCI-H322M
Method in brief: as §1

NCI-H441 = test system: NCI-H441
Method in brief: as §1

NCI-H520 = test system: NCI-H520
Method in brief: as §1

NCI-H647 = test system: NCI-H647
Method in brief: as §1

PC-14 = test system: PC-14
Method in brief: as §1

UMC-11 = test system: UMC-11
Method in brief: as §1

For `COc1cc2nccc(Oc3ccc(NC(=O)Nc4cc(C)on4)c(Cl)c3)c2cc1OC` [Tivozanib] + CC(C)C[C@H](NC(=O)[C@H](Cc1ccccc1)NC(=O)c1cnccn1)B(O)O [Bortezomib] (partner 0.002 µM), the relative viability (201T; first compound 0.005 µM) was 1.11, the relative viability (201T; first compound 0.01581 µM) was 1.08 and the relative viability (201T; first compound 0.05 µM) was 1.06. It also gave a relative viability (201T; first compound 0.1581 µM) of 1.07, a relative viability (201T; first compound 0.5 µM) of 1.11 and a relative viability (COR-L23; first compound 0.005 µM) of 0.88. The relative viability (COR-L23; first compound 0.01581 µM) was 0.931, the relative viability (COR-L23; first compound 0.05 µM) was 1.13 and the relative viability (COR-L23; first compound 0.1581 µM) was 1.01. The relative viability (COR-L23; first compound 0.5 µM) was 0.869, the relative viability (EPLC-272H; first compound 0.005 µM) was 0.967 and the relative viability (EPLC-272H; first compound 0.01581 µM) was 0.856. It also gave a relative viability (EPLC-272H; first compound 0.05 µM) of 0.949, a relative viability (EPLC-272H; first compound 0.1581 µM) of 0.727 and a relative viability (EPLC-272H; first compound 0.5 µM) of 0.676. It also gave a relative viability (H3255; first compound 0.005 µM) of 0.739, a relative viability (H3255; first compound 0.01581 µM) of 0.823 and a relative viability (H3255; first compound 0.05 µM) of 0.795. The relative viability (H3255; first compound 0.1581 µM) was 0.582, the relative viability (H3255; first compound 0.5 µM) was 0.697 and the relative viability (HCC-15; first compound 0.005 µM) was 0.98. For the same compound, the relative viability (HCC-15; first compound 0.01581 µM) was 1.04, the relative viability (HCC-15; first compound 0.05 µM) was 1.08 and the relative viability (HCC-15; first compound 0.1581 µM) was 1.04. For the same compound, the relative viability (HCC-15; first compound 0.5 µM) was 1.03, the relative viability (LOU-NH91; first compound 0.005 µM) was 0.5 and the relative viability (LOU-NH91; first compound 0.01581 µM) was 0.489. The relative viability (LOU-NH91; first compound 0.05 µM) was 0.722, the relative viability (LOU-NH91; first compound 0.1581 µM) was 0.561 and the relative viability (LOU-NH91; first compound 0.5 µM) was 0.499. For the same compound, the relative viability (NCI-H1563; first compound 0.005 µM) was 0.766, the relative viability (NCI-H1563; first compound 0.01581 µM) was 0.964 and the relative viability (NCI-H1563; first compound 0.05 µM) was 0.896. The relative viability (NCI-H1563; first compound 0.1581 µM) was 0.776, the relative viability (NCI-H1563; first compound 0.5 µM) was 0.829 and the relative viability (NCI-H1650; first compound 0.005 µM) was 0.195. The relative viability (NCI-H1650; first compound 0.01581 µM) was 0.21, the relative viability (NCI-H1650; first compound 0.05 µM) was 0.209 and the relative viability (NCI-H1650; first compound 0.1581 µM) was 0.264. For the same compound, the relative viability (NCI-H1650; first compound 0.5 µM) was 0.196, the relative viability (NCI-H1734; first compound 0.005 µM) was 0.757 and the relative viability (NCI-H1734; first compound 0.01581 µM) was 0.904. It also gave a relative viability (NCI-H1734; first compound 0.05 µM) of 1.01, a relative viability (NCI-H1734; first compound 0.1581 µM) of 0.677 and a relative viability (NCI-H1734; first compound 0.5 µM) of 0.854. It also gave a relative viability (NCI-H2023; first compound 0.005 µM) of 0.909, a relative viability (NCI-H2023; first compound 0.01581 µM) of 1.07 and a relative viability (NCI-H2023; first compound 0.05 µM) of 1. For the same compound, the relative viability (NCI-H2023; first compound 0.1581 µM) was 0.853, the relative viability (NCI-H2023; first compound 0.5 µM) was 0.965 and the relative viability (NCI-H2347; first compound 0.005 µM) was 0.875. For the same compound, the relative viability (NCI-H2347; first compound 0.01581 µM) was 0.818, the relative viability (NCI-H2347; first compound 0.05 µM) was 1.18 and the relative viability (NCI-H2347; first compound 0.5 µM) was 0.986. For the same compound, the relative viability (NCI-H2405; first compound 0.005 µM) was 0.87, the relative viability (NCI-H2405; first compound 0.01581 µM) was 1.01 and the relative viability (NCI-H2405; first compound 0.05 µM) was 1.05. The relative viability (NCI-H2405; first compound 0.1581 µM) was 1.02, the relative viability (NCI-H2405; first compound 0.5 µM) was 0.886 and the relative viability (NCI-H3122; first compound 0.005 µM) was 0.99. For the same compound, the relative viability (NCI-H3122; first compound 0.01581 µM) was 1.02, the relative viability (NCI-H3122; first compound 0.05 µM) was 1.08 and the relative viability (NCI-H3122; first compound 0.1581 µM) was 1.12. It also gave a relative viability (NCI-H3122; first compound 0.5 µM) of 1.04, a relative viability (NCI-H322M; first compound 0.005 µM) of 1.24 and a relative viability (NCI-H322M; first compound 0.01581 µM) of 1.21. The relative viability (NCI-H322M; first compound 0.05 µM) was 1.18, the relative viability (NCI-H322M; first compound 0.1581 µM) was 1.05 and the relative viability (NCI-H322M; first compound 0.5 µM) was 1.28. The relative viability (NCI-H441; first compound 0.005 µM) was 0.43, the relative viability (NCI-H441; first compound 0.01581 µM) was 0.332 and the relative viability (NCI-H441; first compound 0.05 µM) was 0.332. The relative viability (NCI-H441; first compound 0.1581 µM) was 0.453, the relative viability (NCI-H441; first compound 0.5 µM) was 0.34 and the relative viability (NCI-H520; first compound 0.005 µM) was 0.575. The relative viability (NCI-H520; first compound 0.01581 µM) was 0.693, the relative viability (NCI-H520; first compound 0.05 µM) was 0.645 and the relative viability (NCI-H520; first compound 0.1581 µM) was 0.519. It also gave a relative viability (NCI-H520; first compound 0.5 µM) of 0.605, a relative viability (NCI-H647; first compound 0.005 µM) of 0.953 and a relative viability (NCI-H647; first compound 0.01581 µM) of 0.886. The relative viability (NCI-H647; first compound 0.05 µM) was 1.05, the relative viability (NCI-H647; first compound 0.1581 µM) was 0.941 and the relative viability (NCI-H647; first compound 0.5 µM) was 0.957. For the same compound, the relative viability (PC-14; first compound 0.005 µM) was 0.821, the relative viability (PC-14; first compound 0.01581 µM) was 0.847 and the relative viability (PC-14; first compound 0.05 µM) was 0.99. The relative viability (PC-14; first compound 0.1581 µM) was 0.811, the relative viability (PC-14; first compound 0.5 µM) was 0.812 and the relative viability (UMC-11; first compound 0.005 µM) was 0.579. The relative viability (UMC-11; first compound 0.01581 µM) was 0.723, the relative viability (UMC-11; first compound 0.05 µM) was 0.911 and the relative viability (UMC-11; first compound 0.5 µM) was 0.668.
